According to patent publication US20230107642A1 (Erasca, Inc., priority 2020, published 2023):

biological target: T1, K-Ras G12C (Homo sapiens, UniProt P01116, G12C); assay: CAF assay (% CAF; method in Example 7, not in this part); format: binding; details: 10 uM compound, 1 h incubation
T1 construct: This protein contained 188 amino acids in total, including an N-terminal 6-Histidine tag; made in house; host or cells: E. coli BL21

Row | SMILES | % CAF @ 10 uM, 1h
1 | C=CC(=O)N1CCN(c2nc(=O)n3c4c(c(-c5ccc(F)cc5)c(Cl)cc24)SC[C@@H]3CN2CCn3c(nnc3C(F)(F)F)C2)[C@@H](C)C1 [Example 444, (S)-7-((S)-4-acryloyl-2-methylpiperazin-1-yl)-9-chloro-10-(4-fluorophenyl)-3-((3-(trifluoromethyl)-5,6-dihydro-[1,2,4]triazolo[4,3-a]pyrazin-7(8H)-yl)methyl)-2H-[1,4]thiazino[2,3,4-ij]quinazolin-5(3H)-one] | 24.1%
2 | C=CC(=O)N1CCN(c2nc(=O)n3c4c(c(-c5ccc(F)cc5F)c(C(F)(F)F)cc24)SC[C@@H](OC)C3)[C@@H](C)C1 [Example 464, (3S)-8-((S)-4-acryloyl-2-methylpiperazin-1-yl)-11-(2,4-difluorophenyl)-3-methoxy-10-(trifluoromethyl)-3,4-dihydro-2H,6H-[1,4]thiazepino[2,3,4-ij]quinazolin-6-one] | 95%
3 | C=CC(=O)N1CCN(c2nc(=O)n3c4c(c(-c5ccc(F)cc5F)c(C(F)(F)F)cc24)SC[C@@H](OC)C3)CC1 [Example 489, (3S)-8-(4-acryloylpiperazin-1-yl)-11-(2,4-difluorophenyl)-3-methoxy-10-(trifluoromethyl)-3,4-dihydro-2H,6H-[1,4]thiazepino[2,3,4-ij]quinazolin-6-one] | 96%
4 | C=CC(=O)N1CCN(c2nc(=O)n3c4c(c(-c5cc(Cl)c(F)cc5F)c(Cl)cc24)SC[C@@H]3CN2CCN(C3CC3)CC2)[C@@H](C)C1 [Example 458, (3S)-7-((S)-4-acryloyl-2-methylpiperazin-1-yl)-9-chloro-10-(5-chloro-2,4-difluorophenyl)-3-((4-cyclopropylpiperazin-1-yl)methyl)-2H-[1,4]thiazino[2,3,4-ij]quinazolin-5(3H)-one] | 55.6%
5 | C=CC(=O)N1CCN(c2nc(=O)n3c4c(c(-c5ccc(F)cc5F)c(C(F)(F)F)cc24)S[C@@H](CN(C)C)C3)[C@@H](C)C1 [Example 442, (2S)-7-((S)-4-acryloyl-2-methylpiperazin-1-yl)-10-(2,4-difluorophenyl)-2-((dimethylamino)methyl)-9-(trifluoromethyl)-2,3-dihydro-5H-[1,4]thiazino[2,3,4-ij]quinazolin-5-one] | 87%

Next, values leading:

Row | % CAF @ 10 uM, 1h | SMILES
6 | 59.5% | C=CC(=O)N1C[C@H](C)N(c2nc(=O)n3c4c(c(-c5ccc(F)cc5)c(Cl)cc24)SC[C@@H]3CN2CCN(C3CC3)CC2)C[C@H]1C [Example 517, (S)-7-((2S,5R)-4-acryloyl-2,5-dimethylpiperazin-1-yl)-9-chloro-3-((4-cyclopropylpiperazin-1-yl)methyl)-10-(4-fluorophenyl)-2H-[1,4]thiazino[2,3,4-ij]quinazolin-5(3H)-one]
7 | 92% | C=CC(=O)N1[C@H](C)CN(c2nc(=O)n3c4c(c(-c5cc(Cl)c(F)cc5F)c(Cl)cc24)SC[C@@H](OC)C3)C[C@@H]1C [Example 530, (3S)-8-((3S,5R)-4-acryloyl-3,5-dimethylpiperazin-1-yl)-10-chloro-11-(5-chloro-2,4-difluorophenyl)-3-methoxy-3,4-dihydro-2H,6H-[1,4]thiazepino[2,3,4-ij]quinazolin-6-one]
8 | 95% | C=CC(=O)N1CCN(c2nc(=O)n3c4c(c(-c5cc(Cl)c(F)cc5F)c(Cl)cc24)SC[C@@H](OC)C3)[C@@H](C)C1 [Example 529, (3S)-8-((S)-4-acryloyl-2-methylpiperazin-1-yl)-10-chloro-11-(5-chloro-2,4-difluorophenyl)-3-methoxy-3,4-dihydro-2H,6H-[1,4]thiazepino[2,3,4-ij]quinazolin-6-one]
9 | 95.7% | C=CC(=O)N1CCN(c2nc(=O)n3c4c(c(-c5ccc(F)cc5F)c(C(F)(F)F)cc24)SC[C@@H]3COCOC)[C@@H](C)C1 (atropisomer, axis not shown) [Example 548, (3S,10R)-7-((S)-4-acryloyl-2-methylpiperazin-1-yl)-10-(2,4-difluorophenyl)-3-((methoxymethoxy)methyl)-9-(trifluoromethyl)-2,3-dihydro-5H-[1,4]thiazino[2,3,4-ij]quinazolin-5-one]
10 | 96% | C=CC(=O)N1CCN(c2nc(=O)n3c4c(c(-c5cc(Cl)c(F)cc5F)c(Cl)cc24)SC[C@H](OC)C3)[C@@H](C)C1 [Example 541, (3R)-8-((S)-4-acryloyl-2-methylpiperazin-1-yl)-10-chloro-11-(5-chloro-2,4-difluorophenyl)-3-methoxy-3,4-dihydro-2H,6H-[1,4]thiazepino[2,3,4-ij]quinazolin-6-one]
11 | 98% | C=CC(=O)N1CCN(c2nc(=O)n3c4c(c(-c5ccc(F)cc5F)c(C(F)(F)F)cc24)SC[C@@H]3COC)CC1 (atropisomer, axis not shown) [Example 578, (3S,10R)-7-(4-acryloylpiperazin-1-yl)-10-(2,4-difluorophenyl)-3-(methoxymethyl)-9-(trifluoromethyl)-2,3-dihydro-5H-[1,4]thiazino[2,3,4-ij]quinazolin-5-one]
12 | 95% | C=CC(=O)N1[C@H](C)CN(c2nc(=O)n3c4c(c(-c5ccc(F)cc5F)c(C(F)(F)F)cc24)SC[C@H](OC)C3)C[C@@H]1C [Example 524, (3R)-8-((3S,5R)-4-acryloyl-3,5-dimethylpiperazin-1-yl)-11-(2,4-difluorophenyl)-3-methoxy-10-(trifluoromethyl)-3,4-dihydro-2H,6H-[1,4]thiazepino[2,3,4-ij]quinazolin-6-one]
13 | 85.1% | C=CC(=O)N1C[C@H](C)N(c2nc(=O)n3c4c(c(-c5ccc(F)cc5)c(C(F)(F)F)cc24)SC[C@@H]3COC)C[C@H]1C [Example 497, (S)-7-((2S,5R)-4-acryloyl-2,5-dimethylpiperazin-1-yl)-10-(4-fluorophenyl)-3-(methoxymethyl)-9-(trifluoromethyl)-2H-[1,4]thiazino[2,3,4-ij]quinazolin-5(3H)-one]

same assay, conditions: 10 uM, 1 h; Table 3

Row | % CAF @ 10 uM, 1h | SMILES
14 | 80.9% | C=CC(=O)N1CCN(c2nc(=O)n3c4c(c(-c5ccc(F)cc5F)c(Cl)cc24)SCC3CN2CCN(CC)CC2)[C@@H](C)C1 (stereo partly drawn) [Example 122, 7-((S)-4-acryloyl-2-methylpiperazin-1-yl)-9-chloro-10-(2,4-difluorophenyl)-3-((4-ethylpiperazin-1-yl)methyl)-2,3-dihydro-5H-[1,4]thiazino[2,3,4-ij]quinazolin-5-one]
15 | 96.9% | C=CC(=O)N1CCN(c2nc(=O)n3c4c(c(-c5c(F)cc(F)cc5F)c(Cl)cc24)SC[C@@H]3CCCN2C[C@@H]3C[C@H]2CO3)[C@@H](C)C1 [Example 109, (S)-3-(3-((1S,4S)-2-oxa-5-azabicyclo[2.2.1]heptan-5-yl)propyl)-7-((S)-4-acryloyl-2-methylpiperazin-1-yl)-9-chloro-10-(2,4,6-trifluorophenyl)-2,3-dihydro-5H-[1,4]thiazino[2,3,4-ij]quinazolin-5-one]
16 | 0% | C=CC(=O)N1[C@@H](C)CN(c2nc(=O)n3c4c(c(-c5ccc(F)cc5F)c(Cl)cc24)SCC3)C[C@@H]1C [Example 156, 7-((3S,5S)-4-acryloyl-3,5-dimethylpiperazin-1-yl)-9-chloro-10-(2,4-difluorophenyl)-2,3-dihydro-5H-[1,4]thiazino[2,3,4-ij]quinazolin-5-one]
17 | 76.1% | C=CC(=O)N1CCN(c2nc(=O)n3c4c(c(-c5cccc6cnccc56)c(Cl)cc24)SCC3)[C@@H](C)C1 [Example 86, 7-((S)-4-acryloyl-2-methylpiperazin-1-yl)-9-chloro-10-(isoquinolin-5-yl)-2,3-dihydro-5H-[1,4]thiazino[2,3,4-ij]quinazolin-5-one]
18 | 21.7% | C=C(F)C(=O)N1CCN(c2nc(=O)n3c4c(c(-c5ccc(F)cc5F)c(Cl)cc24)SCC3)[C@@H](C)C1 [Example 113, 9-chloro-10-(2,4-difluorophenyl)-7-((S)-4-(2-fluoroacryloyl)-2-methylpiperazin-1-yl)-2,3-dihydro-5H-[1,4]thiazino[2,3,4-ij]quinazolin-5-one]
19 | 45.3% | C=CC(=O)N1C[C@H](C)N(c2nc(=O)n3c4c(c(-c5cccc6ccccc56)c(Cl)cc24)SCC3)C[C@H]1C (atropisomer, axis not shown) [Example 183, 7-((2S,5R)-4-acryloyl-2,5-dimethylpiperazin-1-yl)-9-chloro-10-(naphthalen-1-yl)-2,3-dihydro-5H-[1,4]thiazino[2,3,4-ij]quinazolin-5-one]
20 | 93.3% | C=CC(=O)N1CCN(c2nc(=O)n3c4c(c(-c5ccc(F)cc5F)c(Cl)cc24)SCC3)[C@@H](CS(C)(=O)=O)C1 [Example 185, 7-((R)-4-acryloyl-2-((methylsulfonyl)methyl)piperazin-1-yl)-9-chloro-10-(2,4-difluorophenyl)-2,3-dihydro-5H-[1,4]thiazino[2,3,4-ij]quinazolin-5-one]
21 | 55.7% | C=CC(=O)N1CCN(c2nc(=O)n3c4c(c(-c5cc(O)ccc5Cl)c(Cl)cc24)SCC3)[C@@H](C)C1 [Example 153, 7-((S)-4-acryloyl-2-methylpiperazin-1-yl)-9-chloro-10-(2-chloro-5-hydroxyphenyl)-2,3-dihydro-5H-[1,4]thiazino[2,3,4-ij]quinazolin-5-one]
22 | 87% | C=CC(=O)N1CCN(c2nc(=O)n3c4c(c(-c5ccc(F)cc5)c(Cl)cc24)SC[C@H]3CC2CCN(CC(F)F)CC2)[C@@H](C)C1 [Example 68, (R)-7-((S)-4-acryloyl-2-methylpiperazin-1-yl)-9-chloro-3-((1-(2,2-difluoroethyl)piperidin-4-yl)methyl)-10-(4-fluorophenyl)-2,3-dihydro-5H-[1,4]thiazino[2,3,4-ij]quinazolin-5-one]

Row | SMILES | % CAF @ 10 uM, 1h
23 | C=CC(=O)N1C2CN(C(C)=O)CC1CN(c1nc(=O)n3c4c(c(-c5ccc(F)cc5F)c(Cl)cc14)SCC3)C2 [Example 72] | 80.5%
24 | C=CC(=O)N1CCN(c2nc(=O)n3c4c(c(-c5ccc(F)cc5F)c(Cl)cc24)[S@+]([O-])CC3)[C@@H](C)C1 [Example 192, 7-((S)-4-acryloyl-2-methylpiperazin-1-yl)-9-chloro-10-(2,4-difluorophenyl)-2,3-dihydro-5H-[1,4]thiazino[2,3,4-ij]quinazolin-5-one 1-oxide] | 62.4%
